# Source: patent publication US12472159B2, “Compositions comprising amino acids for use in the prevention and treatment of chemotherapy side effects” (Professional Dietetics S.p.A., priority 2020, dated 2025)
# How the values were obtained:
# HL-1 cardiomyocytes [1] = assay: Mitochondrial biogenesis marker mRNA levels by quantitative RT-PCR in HL-1 cardiomyocytes; format: cell-based, mouse; conditions: HL-1 cells; for mRNA levels of mitochondrial biogenesis markers (PGC-1α, NRF1, Tfam, cyt c, COX IV): agent alone vs untreated cells, α5 1% w/v or BCAAem 48 h, 1 μM DOX 16 h; for prevention of DOX-induced decrease of mitochondrial biogenesis marker mRNA: supplement 48 h with 1 μM DOX 16 h, vs DOX-treated cells
# Procedure: Rules of the Declaration of Helsinki have been followed. HL-1 cardiomyocytes were obtained from W.C. Claycomb (Millipore Cat #SCC065) and plated in fibronectin/gelatin-coated flasks, grown to 70-80% confluence in Claycomb medium (Sigma-Aldrich) supplemented with 100 μM norepinephrine (from a 10 mM norepinephrine [Sigma-Aldrich] stock solution dissolved in 30 mM L-ascorbic acid [Sigma-Aldrich]), 2 mM L-glutamine, 100 U/ml penicillin, 100 μg/ml streptomycin and 10% Fetal Bovine Serum (FBS, Sigma-Aldrich). MCF-7 human breast cancer cell line (ATCC® HTB-22™) also available from P. Limonta (Pharmacological and Biomolecular Sciences, University of Milan, Milan, Italy) were cultured in pH 7.4 DMEM, containing streptomycin (100 U/ml), penicillin ([…]), and gentamicin ([…]), and supplemented with 10% FBS. Both cell types were treated with […] or α5 for 48 h and 1 μM DOX for 16 h (FIG. 1). […] The cycle number at which the various transcripts were detectable (threshold cycle, CT) was compared to that of TBP, referred to as ΔCT.
# HL-1 cardiomyocytes [2] = assay: Citrate synthase activity in HL-1 cardiomyocytes; format: cell-based, mouse; conditions: HL-1 cells; agent alone vs untreated cells
# Procedure: (§1) Rules of the Declaration of Helsinki have been followed. HL-1 cardiomyocytes were obtained from W.C. Claycomb (Millipore Cat #SCC065) and plated in fibronectin/gelatin-coated flasks, grown to 70-80% confluence in Claycomb medium (Sigma-Aldrich) supplemented with 100 μM norepinephrine (from a 10 mM norepinephrine [Sigma-Aldrich] stock solution dissolved in 30 mM L-ascorbic acid [Sigma-Aldrich]), 2 mM L-glutamine, 100 U/ml penicillin, 100 μg/ml streptomycin and 10% Fetal Bovine Serum (FBS, Sigma-Aldrich). MCF-7 human breast cancer cell line (ATCC® HTB-22™) also available from P. Limonta (Pharmacological and Biomolecular Sciences, University of Milan, Milan, Italy) were cultured in pH 7.4 DMEM, containing streptomycin (100 U/ml), penicillin ([…]), and gentamicin ([…]), and supplemented with 10% FBS. Both cell types were treated with […] or α5 for 48 h and 1 μM DOX for 16 h (FIG. 1).
# HL-1 cardiomyocytes [3] = assay: Mitochondrial oxidative stress in HL-1 cardiomyocytes (H2O2 release, aconitase, SOD, anti-ROS genes, 8-OHdG); format: cell-based, mouse; conditions: HL-1 cells; agent alone vs untreated cells
# Procedure: as §1
# To investigate the mitochondrial oxidative stress, mitochondria were isolated using the Qproteome Mitochondria isolation kit (Qiagen). Mitochondrial H2O2 release was measured in the presence of horseradish peroxidase (HRP), using the Amplex Red Hydrogen Peroxide/Peroxidase Assay kit (Molecular Probes). Fluorometric measures were made using a Fusion Universal Microplate Analyzer (Packard/PerkinElmer) with excitation filter at 550 nm and emission filter at 590 nm. H2O2 production, calculated from a standard curve, was expressed as nmol/min/mg protein as described Moreover, mitochondrial aconitase and SOD activity were measured as previously described. Briefly, the formation of NADPH was followed spectrophotometrically (340 nm) at 25° C. (for aconitase activity), while SOD activity was measured with the Superoxide Dismutase Assay Kit (Calbiochem). […] Finally, the oxidative damage of DNA was measured as a further marker of oxidative stress. […] Quality and quantity of DNA were confirmed by a NanoDrop ND-1000 spectrophotometry analysis. Absorbance of the ELISA reaction product was determined spectrophotometrically using 450 nm as the primary wave.
# HL-1 cardiomyocytes [4] = assay: MTT viability assay of HL-1 cardiomyocytes; format: cell-based, mouse; conditions: agent alone; 1% α5 48 h or 1 μM DOX 16 h
# Procedure: as §1, with “1). HL-1 cell viability was assessed by MTT [3-(4,5-dimethylthiazol-2-yl)-2,5-diphenyltetrazolium bromide] reagent (Sigma, Milan, Italy). […] The purple formazan crystals were dissolved in 5% SDS/0.1 M HCl (100 μl/well), and the absorbance was recorded on a microplate reader (ELx800, BioTek Instruments, VT, USA) at a wavelength of 570 nm. Each test was repeated at least four times in quadruplicates.” for “1).”
# [5] = tested on: left ventricle of DOX-treated mice; assay: Signaling pathways (eNOS, mTORC1, Sestrin2, KLF15, BCKDH) in left ventricle of mice; format: in vivo, C57BL6/J mice
# Procedure: (§2) Drinking volume, food intake, and body weight were checked twice weekly. At the end of the treatment period, mice were sacrificed by cervical dislocation and hearts quickly removed and freshly used (for oxygen consumption analysis) or frozen in liquid nitrogen and stored at ˜80° C. (for mtDNA, mRNA, and protein level measurement, in addition to citrate synthase activity analysis).
# (§3) Quantitative RT-PCRs were performed as previously described [3-7] with the iQ SybrGreenl SuperMix (Bio-Rad; Segrate, Italy) on an iCycler iQ real-time PCR detection system (Bio-Rad). Briefly, RNA was isolated from left ventricle using the RNeasy Tissue Mini Kit (Qiagen) or from HL-1 cells using the RNeasy Mini Kit (Qiagen). cDNA was synthesized using the iScript cDNA Synthesis Kit (Bio-Rad Laboratories).
# Protein extracts were obtained from left ventricle with T-PER mammalian protein extraction reagent (Pierce, ThermoScientific, Rockford, USA) or from HL-1 cells in M-PER mammalian protein extraction reagent (Pierce, ThermoScientific, Rockford, USA), as indicated by the manufacturer, in the presence of 1 mM NaVO4, 10 mM NaF and a cocktail of protease inhibitors (Sigma-Aldrich, Milan, Italy). Protein content was determined by the bicinchoninic acid protein assay (BCA, Pierce, Euroclone, Milan, Italy), and 50 of the protein extract was separated by SDS-PAGE under reducing conditions. The separated proteins were then electrophoretically transferred to a nitrocellulose membrane (Bio-Rad Laboratories, Segrate, Italy) [3-8]. Proteins of interest were detected with specific antibodies: anti-COX IV (cytochrome c oxidase subunit IV, Cell Signaling Technology Cat #4844, Euroclone, Milan, Italy), anti-cyt c (cytochrome complex, Cell Signaling Technology Cat #4280), anti-PGC-1α (proliferator-activated receptor γ coactivator 1α, Cell Signaling Technology Cat #2178), anti-phospho-AKT (Ser473) (Cell Signaling Technology Cat #4060), anti-AKT (Cell Signaling Technology Cat #4685), anti-phospho-eNOS (Ser1177) (phospho-endothelial nitric oxide synthase, Cell Signaling Technology Cat #9571), anti-eNOS (Cell Signaling Technology Cat #9572), anti-phospho-S6 (Ser235/236) (phospho-S6, Cell Signaling Technology Cat #4858), anti-S6 (Cell Signaling Technology Cat #2217), anti-phospho-mTOR (Ser2481) (Cell Signaling Technology Cat #2974), anti-mTOR (Cell Signaling Technology Cat #2972), anti-phospho-BCKDH (Ser293) (Abcam Cat #200577), anti-BCKDH (Abcam Cat #138460), and anti-GAPDH (1:1000, Cell Signaling Technology Cat #2118) at 1:1000 dilution each. After the visualization of phospho-eNOS, phospho-AKT, phospho-mTOR, phospho-S6, and anti-phospho-BCKDH the filters were stripped with the Restore™ western blot stripping buffer (Euroclone, Milan, Italy) and further used for the visualization of total eNOS, total AKT, total mTOR, total S6, or total BCKDH. Immunostaining was performed using horseradish peroxidase-conjugated anti-rabbit or anti-mouse immunoglobulin for 1 h at room temperature. The protein was detected using SuperSignal substrate (Pierce, Euroclone, Milan, Italy) and quantified by densitometry with ImageJ image analysis software.
# HL-1 cardiomyocytes [6] = assay: Signaling pathways (eNOS, S6, Sestrin2, Akt, KLF15, BCKDH) in HL-1 cardiomyocytes; format: cell-based, mouse; conditions: HL-1 cells
# Procedure: as §1, with “HTB-22TM)” for “HTB-22™)”, “1). […] Lafayette, CO) or siGENOME nontargeting siRNA using Dharmafect 1 transfection reagent. After 24 h transfection, cells were treated with 1% α5 for 24 h and 1 μM DOX for 16 h. Transfection efficacy was determined with siGLO-RISC-free nontargeting siRNA and siRNA uptake by fluorescence detection (absorbance/emission 557/570). Proteins were then extracted for Western blotting analysis.” for “1).”
# HL-1 cardiomyocytes [7] = assay: Klf15, eNOS and Raptor siRNA knockdown in HL-1 cardiomyocytes, RT-PCR and immunoblot; format: cell-based, mouse; conditions: HL-1 cells
# Procedure: For the study of phospho-proteins, HL-1 cells were treated with 1% α5 for 2 h and 1 μM DOX (Doxo-HCl from Sigma-Aldrich D15D15) for the last 60 min. […] After 24 h transfection, cells were treated with 1% α5 for 24 h and 1 μM DOX for 16 h. Transfection efficacy was determined with siGLO-RISC-free nontargeting siRNA and siRNA uptake by fluorescence detection (absorbance/emission 557/570). Proteins were then extracted for Western blotting analysis.
# [8] = tested on: left ventricle of DOX-treated mice; assay: Mitochondrial biogenesis, mass, function and ROS defense genes in left ventricle of DOX-treated mice
# Procedure: as §2, §3
# For mtDNA analysis, total DNA was extracted with a QIAamp DNA Extraction Kit (Qiagen). mtDNA was amplified using primers specific for the mtDNA and normalized to the 18S gene (Table 2) [9]. The mtDNA content was determined using qRT-PCR by measuring the threshold cycle ratio (ΔCT) of the mtDNA gene vs. that of a nuclear encoded gene (18S) in left ventricle of DOX-, α5- or DOX plus α5-treated mice, in addition to control untreated mice [10,11].
# The activity was measured spectrophotometrically at 412 nm at 30° C. in left ventricle extracts [12,13].
compound,measurement,setting,value
"COc1cccc2c1C(=O)c1c(O)c3c(c(O)c1C2=O)C[C@@](O)(C(=O)CO)C[C@@H]3O[C@H]1C[C@H](N)[C@H](O)[C@H](C)O1 [DOX, doxorubicin]","mRNA levels of mitochondrial biogenesis markers (PGC-1α, NRF1, Tfam, cyt c, COX IV)",HL-1 cardiomyocytes [1],decreased
same,citrate synthase activity,HL-1 cardiomyocytes [2],reduction of citrate synthase activity
same,"8-hydroxy-2′-deoxyguanosine (8-OHdG), oxidative DNA damage",HL-1 cardiomyocytes [3],higher amount
same,expression of GPX1 and SOD1 genes,HL-1 cardiomyocytes [3],increased
same,mitochondrial H2O2 release,HL-1 cardiomyocytes [3],markedly increased
same,HL-1 cell survival (MTT),HL-1 cardiomyocytes [4],DOX-induced death of HL-1 cells
same,Klf15 mRNA levels in left ventricle,[5]; agent alone,significantly reduced
same,Ser2481 mTOR phosphorylation in heart,[5]; agent alone,reduced
same,Sestrin2 mRNA in left ventricle,[5]; agent alone,markedly increased
same,"eNOS activity, (Ser1177)phospho-eNOS to total eNOS ratio, in left ventricle",[5]; agent alone,only partially eNOS activity
same,eNOS expression in left ventricle,[5]; agent alone,decreased eNOS expression
same,(Ser235/236)phospho-S6 to total S6 ratio in left ventricle,[5]; agent alone vs saline,decreased
same,(Ser293)-BCKDH phosphorylation in left ventricle,[5]; agent alone vs saline-treated,unchanged
same,(Ser293)-BCKDH phosphorylation (p-BCKDH),"HL-1 cardiomyocytes [6]; DOX vs untreated, α5 with or without DOX",not different
same,(Ser235/236)-S6 phosphorylation,HL-1 cardiomyocytes [6]; agent alone,markedly decreased
same,(Ser 473)-Akt phosphorylation,HL-1 cardiomyocytes [6]; agent alone,markedly reduced Akt phosphorylation
same,KLF15 expression (mRNA and protein),HL-1 cardiomyocytes [6]; agent alone,reduced both at mRNA and protein levels
same,Sestrin2 expression,HL-1 cardiomyocytes [6]; agent alone,markedly increased
same,(Ser1177)-eNOS phosphorylation,"HL-1 cardiomyocytes [6]; agent alone, 1 μM DOX",markedly reduced
same,eNOS gene expression,"HL-1 cardiomyocytes [6]; agent alone, 1 μM DOX or α5 1% w/v",only slightly decreased
same,PGC-1α and COX IV protein,"HL-1 cardiomyocytes [7]; Klf15 siRNA-transfected or otherwise untreated, DOX exposure",significantly decreased both PGC-1α and COX IV protein
same,(Ser293)-BCKDH phosphorylation in Klf15 knockdown cells,"HL-1 cardiomyocytes [7]; Klf15 siRNA, DOX-treated and untreated",unable to change phosphorylation
same,"expression of ROS defense enzymes (SOD1, SOD2, catalase, GPX1) in left ventricle",[8]; agent alone,augmented the expression of ROS defense enzymes
same,mRNA levels of mitochondrial biogenesis genes in left ventricle,[8]; agent alone vs control group,reduced
same,"mitochondrial mass and function (mtDNA amount, respiratory proteins particularly COX IV, citrate synthase activity) in left ventricle",[8]; agent alone vs saline-treated,lower
same,oxygen consumption rate (OCR) of mitochondria isolated from left ventricle,"[8]; agent alone, Clark's electrode",decreased OCR
O=C(O)CCC(=O)O [succinic acid],"mRNA levels of mitochondrial biogenesis markers (PGC-1α, NRF1, Tfam, cyt c, COX IV)",HL-1 cardiomyocytes [1],unable to prevent the DOX-induced reduction of mitochondrial biogenesis as well as to change the mitochondrial gene expression when supplemented alone
same,prevention of DOX-induced decrease of mitochondrial biogenesis marker mRNA,HL-1 cardiomyocytes [1],unable to prevent the DOX-induced reduction of mitochondrial biogenesis
O=C(O)CC(O)C(=O)O (centres unmarked) [malic acid],"mRNA levels of mitochondrial biogenesis markers (PGC-1α, NRF1, Tfam, cyt c, COX IV)",HL-1 cardiomyocytes [1],unable to prevent the DOX-induced reduction of mitochondrial biogenesis as well as to change the mitochondrial gene expression when supplemented alone
same,prevention of DOX-induced decrease of mitochondrial biogenesis marker mRNA,HL-1 cardiomyocytes [1],unable to prevent the DOX-induced reduction of mitochondrial biogenesis
O=C(O)CC(O)(CC(=O)O)C(=O)O [citric acid],"mRNA levels of mitochondrial biogenesis markers (PGC-1α, NRF1, Tfam, cyt c, COX IV)",HL-1 cardiomyocytes [1],unable to prevent the DOX-induced reduction of mitochondrial biogenesis as well as to change the mitochondrial gene expression when supplemented alone
same,prevention of DOX-induced decrease of mitochondrial biogenesis marker mRNA,HL-1 cardiomyocytes [1],unable to prevent the DOX-induced reduction of mitochondrial biogenesis
